# Experiments:
# Assay type in all cases: functional, cell-based
# MCF7 = assay: Antiproliferative activity against human MCF7 cells assessed as reduction in cell viability incubated for 48 hrs by MTS assay; conditions: MCF7, 48 h
# A549 = assay: Antiproliferative activity against human A549 cells assessed as reduction in cell viability incubated for 48 hrs by MTS assay; conditions: A549, 48 h
# SW480 = assay: Antiproliferative activity against human SW480 cells assessed as reduction in cell viability incubated for 48 hrs by MTS assay; conditions: SW480, 48 h
# SMMC-7721 = assay: Antiproliferative activity against human SMMC7721 cells assessed as reduction in cell viability incubated for 48 hrs by MTS assay; conditions: SMMC-7721, 48 h
# HL-60 = assay: Antiproliferative activity against human HL60 cells assessed as reduction in cell viability incubated for 48 hrs by MTS assay; conditions: HL-60, 48 h
Compound,IC50 (MCF7),IC50 (A549),IC50 (SW480),IC50 (SMMC-7721),IC50 (HL-60)
COc1ccc(C(=O)C[n+]2ccn([C@H]3CC[C@H]4[C@@H]5CC=C6C[C@@H](O)CC[C@]6(C)[C@H]5CC[C@]34C)c2)cc1,> 20 µM,> 20 µM,> 20 µM,> 20 µM,> 20 µM
CC(C)CCC[C@@H](C)[C@H]1CC[C@H]2[C@@H]3CC=C4C[C@@H](n5ccnc5)CC[C@]4(C)[C@H]3CC[C@]12C,> 20 µM,> 20 µM,> 20 µM,> 20 µM,> 20 µM
COc1ccc(C(=O)C[n+]2cn([C@@H]3CC[C@@]4(C)C(=CC[C@H]5[C@@H]6CC[C@H]([C@H](C)CCCC(C)C)[C@@]6(C)CC[C@@H]54)C3)c3ccccc32)cc1,9.85 µM,7.66 µM,10.1 µM,1.45 µM,4.41 µM
Cc1cc2ncn([C@@H]3CC[C@@]4(C)C(=CC[C@H]5[C@@H]6C[C@@H]7O[C@]8(CC[C@@H](C)CO8)[C@@H](C)[C@@H]7[C@@]6(C)CC[C@@H]54)C3)c2cc1C,> 20 µM,> 20 µM,> 20 µM,> 20 µM,> 20 µM
CC(C)CCC[C@@H](C)[C@H]1CC[C@H]2[C@@H]3CC=C4C[C@H](n5cc[n+](CC(=O)c6ccccc6)c5)CC[C@]4(C)[C@H]3CC[C@]12C,8.41 µM,8.42 µM,9.03 µM,1.49 µM,6.85 µM
C[C@]12CC[C@H]3[C@@H](CC=C4C[C@@H](O)CC[C@@]43C)[C@@H]1CC[C@@H]2n1ccnc1,> 20 µM,> 20 µM,> 20 µM,> 20 µM,> 20 µM
CC(C)CCC[C@@H](C)[C@H]1CC[C@H]2[C@@H]3CC=C4C[C@H](n5ccnc5)CC[C@]4(C)[C@H]3CC[C@]12C,> 20 µM,> 20 µM,> 20 µM,> 20 µM,> 20 µM
COc1ccc(C(=O)C[n+]2ccn([C@H]3CC[C@@]4(C)C(=CC[C@H]5[C@@H]6CC[C@H]([C@H](C)CCCC(C)C)[C@@]6(C)CC[C@@H]54)C3)c2)cc1,8.71 µM,8.75 µM,10.7 µM,1.52 µM,7.97 µM
C[C@]12CC[C@H]3[C@@H](CC=C4C[C@@H](O)CC[C@@]43C)[C@@H]1CC[C@@H]2n1cc[n+](Cc2ccccc2Br)c1,9.61 µM,> 20 µM,> 20 µM,7.63 µM,6.3 µM
C[C@@H]1CC[C@@]2(OC1)O[C@H]1C[C@H]3[C@@H]4CC=C5C[C@@H](n6ccnc6)CC[C@]5(C)[C@H]4CC[C@]3(C)[C@H]1[C@@H]2C,14.5 µM,9.92 µM,> 20 µM,9.74 µM,9.51 µM
CC(C)CCC[C@@H](C)[C@H]1CC[C@H]2[C@@H]3CC=C4C[C@H](n5cc[n+](CC(=O)c6cccc(Br)c6)c5)CC[C@]4(C)[C@H]3CC[C@]12C,8.51 µM,7.22 µM,6.33 µM,1.7 µM,9.91 µM
CC(C)CCC[C@@H](C)[C@H]1CC[C@H]2[C@@H]3C[C@H](n4cc[n+](CC(=O)c5cccc(Br)c5)c4)[C@]45C[C@H]4CC[C@]5(C)[C@H]3CC[C@]12C,8.7 µM,7.84 µM,8.23 µM,1.22 µM,1.42 µM
C[C@@H]1CC[C@@]2(OC1)O[C@H]1C[C@H]3[C@@H]4C[C@H](n5ccnc5)[C@]56C[C@H]5CC[C@]6(C)[C@H]4CC[C@]3(C)[C@H]1[C@@H]2C,19.7 µM,10.3 µM,> 20 µM,10 µM,8.33 µM
C[C@]12CC[C@H]3[C@@H](CC=C4C[C@@H](O)CC[C@@]43C)[C@@H]1CC[C@@H]2n1cc[n+](CC(=O)c2ccccc2)c1,> 20 µM,> 20 µM,> 20 µM,> 20 µM,> 20 µM
CC(=O)O[C@H]1CC[C@@]2(C)C(=CC[C@H]3[C@@H]4CC[C@H](n5ccnc5)[C@@]4(C)CC[C@@H]32)C1,> 20 µM,> 20 µM,> 20 µM,> 20 µM,> 20 µM

# The next compounds have a lower IC50 (MCF7) than those just listed; values first:
IC50 (MCF7),IC50 (A549),IC50 (SW480),IC50 (SMMC-7721),IC50 (HL-60),Compound
2.31 µM,5.02 µM,2.01 µM,0.44 µM,0.74 µM,COc1ccc(C(=O)C[n+]2cn([C@@H]3CC[C@@]4(C)C(=CC[C@H]5[C@@H]6C[C@@H]7O[C@]8(CC[C@@H](C)CO8)[C@@H](C)[C@@H]7[C@@]6(C)CC[C@@H]54)C3)c3cc(C)c(C)cc32)cc1
1.09 µM,1.12 µM,1.59 µM,1.15 µM,1.01 µM,C[C@@H]1CC[C@@]2(OC1)O[C@H]1C[C@H]3[C@@H]4CC=C5C[C@H](n6cc[n+](Cc7ccc8ccccc8c7)c6)CC[C@]5(C)[C@H]4CC[C@]3(C)[C@H]1[C@@H]2C
1.43 µM,1.55 µM,1.65 µM,1.71 µM,1.25 µM,C[C@@H]1CC[C@@]2(OC1)O[C@H]1C[C@H]3[C@@H]4CC=C5C[C@H](n6cc[n+](CC(=O)c7cccc(Br)c7)c6)CC[C@]5(C)[C@H]4CC[C@]3(C)[C@H]1[C@@H]2C
8.04 µM,7.67 µM,7.48 µM,1.04 µM,1.64 µM,CC(C)CCC[C@@H](C)[C@H]1CC[C@H]2[C@@H]3C[C@H](n4cc[n+](Cc5ccc6ccccc6c5)c4)[C@]45C[C@H]4CC[C@]5(C)[C@H]3CC[C@]12C
2.53 µM,4.74 µM,5.64 µM,2.45 µM,1.22 µM,CC(=O)O[C@H]1CC[C@@]2(C)C(=CC[C@H]3[C@@H]4CC[C@H](n5cc[n+](Cc6ccc7ccccc7c6)c5)[C@@]4(C)CC[C@@H]32)C1
7.25 µM,> 20 µM,9.78 µM,14.9 µM,6.42 µM,C[C@]12CC[C@H]3[C@@H](CC=C4C[C@@H](O)CC[C@@]43C)[C@@H]1CC[C@@H]2n1cc[n+](CC(=O)c2cccc(Br)c2)c1
3.05 µM,5.53 µM,3.1 µM,0.57 µM,0.45 µM,Cc1cc2c(cc1C)[n+](CC(=O)c1ccc3ccccc3c1)cn2[C@@H]1CC[C@@]2(C)C(=CC[C@H]3[C@@H]4C[C@@H]5O[C@]6(CC[C@@H](C)CO6)[C@@H](C)[C@@H]5[C@@]4(C)CC[C@@H]32)C1
2.11 µM,2.45 µM,2.55 µM,1.45 µM,1.22 µM,COc1ccc(C(=O)C[n+]2cn([C@@H]3CC[C@@]4(C)C(=CC[C@H]5[C@@H]6C[C@@H]7O[C@]8(CC[C@@H](C)CO8)[C@@H](C)[C@@H]7[C@@]6(C)CC[C@@H]54)C3)c3ccccc32)cc1
< 0.008 µM,< 0.008 µM,< 0.008 µM,< 0.008 µM,< 0.008 µM,CC(=O)O[C@H]1C(=O)[C@@]2(C)[C@H]([C@H](OC(=O)c3ccccc3)[C@]3(O)C[C@H](OC(=O)[C@H](O)[C@@H](NC(=O)c4ccccc4)c4ccccc4)C(C)=C1C3(C)C)[C@]1(OC(C)=O)CO[C@@H]1C[C@@H]2O [PACLITAXEL]
4.88 µM,7.2 µM,7.26 µM,5.47 µM,4.35 µM,CC(=O)O[C@H]1CC[C@@]2(C)C(=CC[C@H]3[C@@H]4CC[C@H](n5cc[n+](CC(=O)c6cccc(Br)c6)c5)[C@@]4(C)CC[C@@H]32)C1
1.96 µM,1.21 µM,4.15 µM,1.61 µM,0.94 µM,COc1ccc(C(=O)C[n+]2ccn([C@H]3CC[C@@]4(C)C(=CC[C@H]5[C@@H]6C[C@@H]7O[C@]8(CC[C@@H](C)CO8)[C@@H](C)[C@@H]7[C@@]6(C)CC[C@@H]54)C3)c2)cc1
1.53 µM,1.77 µM,1.74 µM,1.75 µM,1.36 µM,C[C@@H]1CC[C@@]2(OC1)O[C@H]1C[C@H]3[C@@H]4CC=C5C[C@H](n6c[n+](CC(=O)c7cccc(Br)c7)c7ccccc76)CC[C@]5(C)[C@H]4CC[C@]3(C)[C@H]1[C@@H]2C
4.38 µM,9.69 µM,5.59 µM,3.5 µM,2 µM,C[C@]12CC[C@H]3[C@@H](CC=C4C[C@@H](O)CC[C@@]43C)[C@@H]1CC[C@@H]2n1cc[n+](CC(=O)c2ccc3ccccc3c2)c1
3.46 µM,10.7 µM,6.06 µM,4.31 µM,2.2 µM,COc1ccc(C(=O)C[n+]2ccn([C@H]3CC[C@H]4[C@@H]5CC=C6C[C@@H](OC(C)=O)CC[C@]6(C)[C@H]5CC[C@]34C)c2)cc1
5.5 µM,7.76 µM,7.39 µM,7.38 µM,2.69 µM,C[C@@H]1CC[C@@]2(OC1)O[C@H]1C[C@H]3[C@@H]4C[C@H](n5cc[n+](CC(=O)c6ccccc6)c5)[C@]56C[C@H]5CC[C@]6(C)[C@H]4CC[C@]3(C)[C@H]1[C@@H]2C
5.66 µM,1.86 µM,7.96 µM,2.14 µM,1.18 µM,C[C@@H]1CC[C@@]2(OC1)O[C@H]1C[C@H]3[C@@H]4CC=C5C[C@@H](n6cc[n+](CC(=O)c7ccccc7)c6)CC[C@]5(C)[C@H]4CC[C@]3(C)[C@H]1[C@@H]2C

# Source: ChEMBL document CHEMBL4340516, “Synthesis and antitumor activity of novel steroidal imidazolium salt derivatives” (Eur J Med Chem, 2019)
